Patent US20210121527A1, “METHODS OF TREATING MINIMAL RESIDUAL CANCER” (ICAHN SCHOOL OF MEDICINE AT MOUNT SINAI, priority 2018, published 2021)
pIC50: −log10 of the molar value.

Experiments:
[1] = target: T1, PERK (Homo sapiens, UniProt Q9NZJ5); assay: Cell-based TR-FRET assay of tunicamycin-induced eIF2a phosphorylation in 293 cells
T1 construct: endogenous in cells; host or cells: GripTite 293 cells expressing GFP-eIF2a
T1 sequence (Q9NZJ5 30-1116): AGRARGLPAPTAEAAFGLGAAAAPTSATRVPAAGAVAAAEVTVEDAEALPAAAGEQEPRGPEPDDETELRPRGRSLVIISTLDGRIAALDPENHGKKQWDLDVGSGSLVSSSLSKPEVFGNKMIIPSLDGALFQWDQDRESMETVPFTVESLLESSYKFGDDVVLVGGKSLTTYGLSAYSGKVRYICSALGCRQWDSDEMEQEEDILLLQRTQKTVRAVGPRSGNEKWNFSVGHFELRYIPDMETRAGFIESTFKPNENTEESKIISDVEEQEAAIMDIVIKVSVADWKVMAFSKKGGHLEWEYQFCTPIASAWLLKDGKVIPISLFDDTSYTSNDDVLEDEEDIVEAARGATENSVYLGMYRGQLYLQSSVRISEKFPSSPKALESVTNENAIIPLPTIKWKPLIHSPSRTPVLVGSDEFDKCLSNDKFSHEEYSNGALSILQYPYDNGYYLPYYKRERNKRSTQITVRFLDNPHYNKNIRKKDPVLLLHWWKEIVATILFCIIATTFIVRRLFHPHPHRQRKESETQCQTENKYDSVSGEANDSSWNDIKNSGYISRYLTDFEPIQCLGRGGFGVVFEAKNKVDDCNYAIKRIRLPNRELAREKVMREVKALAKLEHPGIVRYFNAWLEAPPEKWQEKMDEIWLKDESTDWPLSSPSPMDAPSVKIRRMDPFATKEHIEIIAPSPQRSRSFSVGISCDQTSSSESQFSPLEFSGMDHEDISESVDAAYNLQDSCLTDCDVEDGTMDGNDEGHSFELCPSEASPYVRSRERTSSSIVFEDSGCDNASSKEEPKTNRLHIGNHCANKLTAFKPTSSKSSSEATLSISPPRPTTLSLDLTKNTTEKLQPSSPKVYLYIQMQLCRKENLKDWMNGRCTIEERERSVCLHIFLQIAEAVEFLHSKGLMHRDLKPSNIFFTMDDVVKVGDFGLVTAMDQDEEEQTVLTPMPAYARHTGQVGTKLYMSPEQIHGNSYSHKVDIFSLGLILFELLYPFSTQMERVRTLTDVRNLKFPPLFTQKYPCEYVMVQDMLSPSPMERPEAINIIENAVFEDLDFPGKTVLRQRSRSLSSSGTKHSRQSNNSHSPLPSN
Experimental: Cell-based TR-FRET assay: Briefly, GripTite™ 293 cells (Invitrogen) expressing GFP-eIF2a were seeded at 10,000 cells per well in 384-well plates and allowed to attach overnight. Cells were pre-treated with test compounds for 1 hour. Tunicamycin (1 μM) was added to induce PERK activity and the plates were incubated at 37° C. for 2 hours. The culture media was removed and the cells were lysed in buffer consisting of 20 mM Tris-HCl, pH 7.5, 150 mM NaCl, 5 mM EDTA, 1% NP-40, 5 mM NaF, Protease inhibitors (Sigma Cat # P8340), Phosphatase inhibitors (Sigma Cat # P2850), and 2 nM Terbium-labelled anti-phospho-eIF2 antibody (Invitrogen Cat # PM43121). Cell lysates were incubated for 2 hours in the dark at room temperature and fluorescence was monitored in an EnVison® Multilabel reader (PerkinElmer, Waltham, Mass.).

[2] = system: ATF4-Luc activity; assay: ATF4-luc assay, tunicamycin-induced, 293 cells; conditions: Homo sapiens, HEK293; tunicamycin-induced ATF4-Luc activity in 293 cells; read-out: ATF4-luc Cell-based IC50
Experimental: ATF4-luc assay: 293 cells were transduced with an ATF4-luc expressing lentivirus (SABiosciences, Frederick, Md.) and selected in growth medium containing 1 μg/ml puromycin. To determine the effect of compounds on ER stress-induced ATF4 activity, 293-ATF4-luc cells were seeded at 15,000 cells per well in poly-D-Lysine coated 96-well plates and allowed to attach overnight. The cells were then pre-treated with test compounds for 30 minutes. Tunicamycin (2 μM) was added to induce ER stress and the plates were incubated at 37° C. for 6 hours. The culture media was then aspirated and the cells were lysed in passive lysis buffer (Promega Cat # E194A) on a plate shaker for 5 minutes. Luciferase activity was monitored using Luciferase Assay Reagent (Promega Cat # E1501) in a Wallac 1420 Victor2™ Multilabel Counter (PerkinElmer, Waltham, Mass.) and IC50 values were determined from the resulting fitted inhibition curves using un-induced (100% inhibition) and induced (0% inhibition) wells as controls.

[3] = target: 456 kinases; assay: DiscoveRx scanMAX kinase profiling, number of kinases inhibited; assay type: binding; conditions: for # kinases inhibited >50%: 456 kinases tested; for number of kinases with >60% inhibition: 20 μM as stated in text, 456 kinases
Experimental: (§1) Biochemical assays: Recombinant human EIF2AK3 (PERK) catalytic domain (amino acids 536-1116; Cat # PV5107), GFP-eIF2a (Cat # PV4809) substrate, and Terbium-labelled phospho-eIF2a antibody (Cat # PR8956B) were purchased from Invitrogen (Carlsbad, Calif.). HIS-SUMO-GCN2 catalytic domain (amino acids 584-1019) was expressed and purified from E. coli. TR-FRET kinase assays were performed in the absence or presence of inhibitors in a reaction buffer consisting of 50 mM HEPES, pH 7.5, 10 mMMgCl2, 1.0 mM EGTA, and 0.01% Brij-35, and 100-200 nM GFP-eIF2a substrate. […] Following the addition of test compound, the reaction was initiated by addition of enzyme and incubated at room temperature for 45 minutes. The reaction was stopped by addition of EDTA to a final concentration of 10 mM and Terbium-labelled phospho-eIF2α antibody was added at a final concentration of 2 nM and incubated for 90 minutes. The resulting fluorescence was monitored in an EnVison® Multilabel reader (PerkinElmer, Waltham, Mass.). TR-FRET ratios and the resulting IC50 values were determined from the fitted inhibition curves. Biochemical specificity profiling was performed at Cerep (Redmond, Wash.) and DiscoverX (San Diego, Calif.).

[4] = system: secondary kinase targets; assay: Kinase selectivity by enzymatic biochemical assay (FIG. 2E); conditions: enzymatic assays
Experimental: as §1

Row | # kinases inhibited >50% ([3]; 20.0 μM) | SMILES | pIC50 [1] | pIC50 [2] | # kinases inhibited >50% ([3]; 0.2 μM) | # kinases inhibited >50% ([3]; 2.0 μM) | secondary kinase targets [4] | number of kinases with >60% inhibition [3]
1 | 229 | Cc1cc(NC(=O)[C@H](O)c2cccc(F)c2)ccc1-c1cn(C)c2ncnc(N)c12 [LY3, (2R)-N-[4-(4-amino-7-methyl-pyrrolo[2,3-d]pyrimidin-5-yl)-3-methyl-phenyl]-2-(3-fluorophenyl)-2-hydroxy-acetamide] | 7.59 | 7.80 | 27 | 85 | several secondary targets below 5 μM | 
2 |  | Cc1cc(NC(=O)[C@H](O)c2cc(F)cc(F)c2)ccc1-c1cnc(N)c(C(=O)NC(C)C)c1 [LY4, 2-amino-5-[4-[[(2R)-2-(3,5-difluorophenyl)-2-hydroxy-acetyl]amino]-2-methyl-phenyl]-N-isopropyl-pyridine-3-carboxamide] | 7.27 | 7.32 | 19 | 20 | no secondary kinase targets below 15 μM concentration | 8
3 |  | Cc1cccc(CC(=O)N2CCc3c2ccc(-c2cn(C)c4ncnc(N)c24)c3F)n1 [GSK2656157, reference compound] | 7.44 | 7.68 | 34 | 80 | several secondary targets below 5 μM | 58
4 | 138 | CNC(=O)c1nc(-c2ccc(NC(=O)[C@H](O)c3cc(F)cc(F)c3)cc2C)cnc1N [LY2, 3-amino-6-[4-[[(2R)-2-(3,5-difluorophenyl)-2-hydroxy-acetyl]amino]-2-methyl-phenyl]-N-methyl-pyrazine-2-carboxamide] | 6.93 | 7.25 | 16 | 35 | several secondary targets below 5 μM | 
